From patent US20250017914A1, “6-AZA-QUINOLINE DERIVATIVES AND RELATED USES” (Black Diamond Therapeutics, Inc., priority 2021, published 2025)

Target: T1, BaF3 BRAF-KIAA1549 fusion cells (Homo sapiens, UniProt P15056)
T1 construct: The BRAF-KIAA1549 fusion mutant was subcloned into pMXs-IRES-Blasticidin (RTV-016, Cell Biolabs, San Diego, CA); No tag given; Q9HCM3 (UPF0606 protein KIAA1549)
Assay: BaF3 BRAF-KIAA1549 fusion cell proliferation assay (CellTiterGlo, 96 hours)
Format: cell-based
Conditions: Table A1
Protocol: Retroviral Production: The BRAF-KIAA1549 fusion mutant was subcloned into pMXs-IRES-Blasticidin (RTV-016, Cell Biolabs, San Diego, CA). Retrovirus was produced by transfection of HEK 293T cells with the retroviral BRAF mutant expression vector pMXs-IRES-Blasticidin (RTV-016, Cell Biolabs), pCMV-Gag-Pol vector and pCMV-VSV-G-Envelope vector. Briefly, HEK 293T cells were plated in Poly-D-lysine coated 6-well plate (2.5×10^5 cells per well) and incubated overnight. The next day, retroviral plasmids (1 μg of BRAF-KIAA fusion mutant, 0.32 μg of pCMV-Gag-Pol and 0.165 μg pCMV-VSV-G) were mixed in 300 μL of Optimem (31985, Life Technologies). The mixture was incubated at room temperature for 5 minutes and then added to Optimem containing transfection reagent Lipofectamine (11668, Invitrogen) and incubated for 20 minutes. The mixture was then added dropwise to HEK 293T cells. The next day the medium was replaced with fresh culture medium and retrovirus was harvested at 24 hours.
Generation of BRAF-KIAA1549 fusion stable cell line: BaF3 cells were plated in V-bottom 96 well plate (COSTAR #3894) in 80 μL of RPMI/10% FBS and 0.01 ng/mL mouse IL-3, supplemented with 8 μg/mL polybrene (4×10^4 cells/well). Cells were transduced with 20 μL of BRAF-KIAA1549 fusion viral supernatant by centrifuging for 30 minutes at 1000 rpm. Cells were placed in a 37° C. incubator overnight. Next day 100 μL of RPMI/10% FBS and 0.01 ng/mL mouse IL-3 was added. After 24 hours, 100 μL of cells were transferred to a 24 well plate containing 900 μL of RPM/10% FBS and 15 μg/mL Blasticidin. Contents of the 24 well plate were sampled for cell viability via CellTiterGlo (Promega) over a 2-week period.
Assay for cell proliferation: BaF3 BRAF-KIAA1549 fusion cells were resuspended at 1.5×10^5 c/mL in RPMI containing 10% Heat Inactivated FBS, 1% L-glutamine and dispensed in duplicate (7×10^4 c/well) into 384 well plates. To determine the effect of compound on cell proliferation, BaF3 BRAF-KIAA1549 fusion cells were incubated for 96 hours in the presence of vehicle control (DMSO) or compound at varying concentrations. Inhibition of cell growth was determined by luminescent quantification (Envision by Perkin Elmer) of intracellular ATP content using CellTiterGlo (Promega), according to the protocol provided by the manufacturer. To determine the IC50 values, the vehicle-treated cells were normalized as viable cells and analyzed using the CDD Vault, Collaborative Drug Discovery, Burlingame, CA (the Levenberg-Marquardt algorithm; Levenberg, K., […]; Marquardt, D., 1963).
Tables A1 and A2 assign each compound a code for potency in the BaF3 BRAF-KIAA1549 fusion cell proliferation assay: A, B, C, or D. According to the code, A represents an IC50 value <20 nM; B represents an IC50 value ≥20 nM and <100 nM; C represents an IC50 value ≥100 nM and <500 nM; and D represents an IC50 value ≥500 nM.

T1 sequence (P15056 whole entry, change not shown, the tested form may be a part): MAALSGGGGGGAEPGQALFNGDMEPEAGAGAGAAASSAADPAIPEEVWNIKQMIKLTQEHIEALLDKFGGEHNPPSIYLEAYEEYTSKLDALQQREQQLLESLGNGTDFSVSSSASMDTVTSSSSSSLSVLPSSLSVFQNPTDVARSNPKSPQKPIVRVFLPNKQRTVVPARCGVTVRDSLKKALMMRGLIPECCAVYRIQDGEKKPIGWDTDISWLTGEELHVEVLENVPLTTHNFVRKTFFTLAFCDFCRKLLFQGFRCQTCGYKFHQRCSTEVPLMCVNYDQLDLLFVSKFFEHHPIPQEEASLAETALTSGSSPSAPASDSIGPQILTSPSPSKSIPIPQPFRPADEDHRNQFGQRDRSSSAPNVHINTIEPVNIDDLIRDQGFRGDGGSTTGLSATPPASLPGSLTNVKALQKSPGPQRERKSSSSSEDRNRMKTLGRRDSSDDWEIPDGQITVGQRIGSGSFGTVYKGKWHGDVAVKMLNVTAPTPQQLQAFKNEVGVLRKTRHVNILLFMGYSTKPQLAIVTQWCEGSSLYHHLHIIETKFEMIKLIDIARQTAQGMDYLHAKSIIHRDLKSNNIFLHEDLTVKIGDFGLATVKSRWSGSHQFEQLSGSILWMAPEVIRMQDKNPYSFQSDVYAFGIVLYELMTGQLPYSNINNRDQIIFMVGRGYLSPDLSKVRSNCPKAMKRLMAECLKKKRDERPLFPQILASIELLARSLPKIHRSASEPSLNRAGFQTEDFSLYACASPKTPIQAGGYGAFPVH

SMILES	GI50
CNc1cc2ncc(-c3cc(NC(=O)c4cc(C(C)(C)C#N)ccn4)cnn3)cc2cn1 [Compound 49, 4-(2-Cyanopropan-2-yl)-N-(6-(7-(methylamino)-1,6-naphthyridin-3-yl)pyridazin-4-yl)picolinamide]	< 20 nM
CNc1cc2ncc(-c3cc(NC(=O)c4cc(C(C)(C)C#N)ccn4)c(Cl)cc3C)cc2cn1 [Compound 50, N-(2-Chloro-4-methyl-5-(7-(methylamino)-1,6-naphthyridin-3-yl)phenyl)-4-(2-cyanopropan-2-yl)picolinamide]	100 to 500 nM
CNc1cc2ncc(-c3cc(NC(=O)c4cc(C(C)(C)C#N)ccn4)c(F)c(F)c3C)cc2cn1 [Compound 51, 4-(2-Cyanopropan-2-yl)-N-(2,3-difluoro-4-methyl-5-(7-(methylamino)-1,6-naphthyridin-3-yl)phenyl)picolinamide]	≥ 500 nM
CNc1cc2ncc(-c3cc(C(=O)Nc4cc(C(C)(C)C#N)ccn4)ccc3C)cc2cn1 [Compound 53, N-(4-(2-cyanopropan-2-yl)pyridin-2-yl)-4-methyl-3-(7-(methylamino)-1,6-naphthyridin-3-yl)benzamide]	20 to 100 nM
CNc1cc2ncc(-c3cc(NC(=O)c4ccnc(C(C)(C)C#N)c4)cnc3C)cc2cn1 [Compound 55, 2-(2-Cyanopropan-2-yl)-N-(6-methyl-5-(7-(methylamino)-1,6-naphthyridin-3-yl)pyridin-3-yl)isonicotinamide]	< 20 nM
CNc1cc2ncc(-c3cc(NC(=O)c4ccnc(C(C)(C)C#N)c4)ccc3C)cc2cn1 [Compound 56, 2-(2-Cyanopropan-2-yl)-N-(4-methyl-3-(7-(methylamino)-1,6-naphthyridin-3-yl)phenyl)isonicotinamide]	20 to 100 nM
CNc1cc2ncc(-c3cc(NC(=O)c4ccnc(C(C)C)c4)cnc3C)cc2cn1 [Compound 57, 2-Isopropyl-N-(6-methyl-5-(7-(methylamino)-1,6-naphthyridin-3-yl)pyridin-3-yl)isonicotinamide]	< 20 nM
CNc1cc2ncc(-c3cc(C(=O)Nc4cc(C(C)(C)C#N)ccn4)cnc3C)cc2cn1 [Compound 59, N-(4-(2-Cyanopropan-2-yl)pyridin-2-yl)-6-methyl-5-(7-(methylamino)-1,6-naphthyridin-3-yl)nicotinamide]	20 to 100 nM
CNc1cc2ncc(-c3cc(NC(=O)CN4CCC[C@H](C(F)(F)F)C4)cnc3C)cc2cn1 [Compound 62, (S)—N-(6-Methyl-5-(7-(methylamino)-1,6-naphthyridin-3-yl)pyridin-3-yl)-2-(3-(trifluoromethyl)piperidin-1-yl)acetamide]	20 to 100 nM
CNc1cc2ncc(-c3cc(NC(=O)CN4CCC[C@H](C(F)(F)F)C4)ccc3C)cc2cn1 [Compound 63, (S)—N-(4-Methyl-3-(7-(methylamino)-1,6-naphthyridin-3-yl)phenyl)-2-(3-(trifluoromethyl)piperidin-1-yl)acetamide]	20 to 100 nM
CNc1cc2ncc(-c3cc(NC(=O)c4cc(C(F)(F)F)c(OCCO)cn4)ccc3C)cc2cn1 [Compound 71, 5-(2-hydroxyethoxy)-N-(4-methyl-3-(7-(methylamino)-1,6-naphthyridin-3-yl)phenyl)-4-(trifluoromethyl)picolinamide]	20 to 100 nM
CNc1cc2ncc(-c3cc(NC(=O)c4ccc(OC(F)F)cn4)cnc3C)cc2cn1 [Compound 72, 5-(Difluoromethoxy)-N-(6-methyl-5-(7-(methylamino)-1,6-naphthyridin-3-yl)pyridin-3-yl)picolinamide]	≥ 500 nM
CNc1cc2ncc(-c3cc(NC(=O)c4cc(C(C)(C)C#N)ccn4)nnc3C)cc2cn1 [Compound 77, 4-(2-cyanopropan-2-yl)-N-(6-methyl-5-(7-(methylamino)-1,6-naphthyridin-3-yl)pyridazin-3-yl)picolinamide]	20 to 100 nM
Cc1ccc(NC(=O)c2cc(C(F)F)ccn2)cc1-c1cnc2cc(NCCC#N)ncc2c1 [Compound 78, N-(3-(7-((2-cyanoethyl)amino)-1,6-naphthyridin-3-yl)-4-methylphenyl)-4-(difluoromethyl)picolinamide]	20 to 100 nM
CNc1cc2nc(C#N)c(-c3cc(NC(=O)c4ccnc(C(F)(F)F)c4)ccc3C)cc2cn1 [Compound 79, N-(3-(2-cyano-7-(methylamino)-1,6-naphthyridin-3-yl)-4-methylphenyl)-2-(trifluoromethyl)isonicotinamide]	< 20 nM
CCNc1cc2ncc(-c3cc(NC(=O)c4ccnc(C5(F)CC5)c4)ccc3C)cc2cn1 [Compound 153, N-(3-(7-(ethylamino)-1,6-naphthyridin-3-yl)-4-methylphenyl)-2-(1-fluorocyclopropyl)isonicotinamide]	20 to 100 nM
Cc1ccc(NC(=O)c2ccnc(C3(F)CC3)c2)cc1-c1cnc2cc(N)ncc2c1 [Compound 154, N-(3-(7-amino-1,6-naphthyridin-3-yl)-4-methylphenyl)-2-(1-fluorocyclopropyl)isonicotinamide]	< 20 nM
CCNc1cc2ncc(-c3cc(NC(=O)c4cc(C(C)(C)C#N)ccn4)cnc3C)cc2cn1 [Compound 175, 4-(2-cyanopropan-2-yl)-N-(5-(7-(ethylamino)-1,6-naphthyridin-3-yl)-6-methylpyridin-3-yl)picolinamide]	20 to 100 nM
Cc1ncc(NC(=O)c2cc(C(C)(C)C#N)ccn2)cc1-c1cnc2cc(N)ncc2c1 [Compound 176, N-(5-(7-amino-1,6-naphthyridin-3-yl)-6-methylpyridin-3-yl)-4-(2-cyanopropan-2-yl)picolinamide]	20 to 100 nM

Other lines, results leading:

GI50	SMILES
< 20 nM	CNc1cc2ncc(-c3cc(NC(=O)c4nccc(C(F)(F)F)c4F)cnc3C)cc2cn1 [Compound 52, 3-Fluoro-N-(6-methyl-5-(7-(methylamino)-1,6-naphthyridin-3-yl)pyridin-3-yl)-4-(trifluoromethyl)picolinamide]
20 to 100 nM	CNc1cc2ncc(-c3cc(NC(=O)c4ccnc(C(C)(C)C)c4)cnc3C)cc2cn1 [Compound 58, 2-(tert-Butyl)-N-(6-methyl-5-(7-(methylamino)-1,6-naphthyridin-3-yl)pyridin-3-yl)isonicotinamide]
< 20 nM	CNc1cc2ncc(-c3cc(NC(=O)c4cc(C(F)(F)F)c(F)cn4)cnc3C)cc2cn1 [Compound 60, 5-Fluoro-N-(6-methyl-5-(7-(methylamino)-1,6-naphthyridin-3-yl)pyridin-3-yl)-4-(trifluoromethyl)picolinamide]
100 to 500 nM	CNc1cc2ncc(-c3cc(NC(=N)c4cc(C(F)(F)F)ccn4)ccc3C)cc2cn1 [Compound 61, N-(4-Methyl-3-(7-(methylamino)-1,6-naphthyridin-3-yl)phenyl)-4-(trifluoromethyl)picolinimidamide]
≥ 500 nM	CNc1cc2ncc(-c3cc(NC(=N)c4cc(C(F)(F)F)ccn4)cnc3C)cc2cn1 [Compound 64, N-(6-Methyl-5-(7-(methylamino)-1,6-naphthyridin-3-yl)pyridin-3-yl)-4-(trifluoromethyl)picolinimidamide]
20 to 100 nM	CNc1cc2ncc(-c3cc(NC(=O)c4cc(C(C)(C)F)ccn4)cnc3C)cc2cn1 [Compound 65, 4-(2-Fluoropropan-2-yl)-N-(6-methyl-5-(7-(methylamino)-1,6-naphthyridin-3-yl)pyridin-3-yl)picolinamide]
20 to 100 nM	CNc1cc2ncc(-c3cc(NC(=O)c4cc(C(F)F)c(F)cn4)cnc3C)cc2cn1 [Compound 66, 4-(Difluoromethyl)-5-fluoro-N-(6-methyl-5-(7-(methylamino)-1,6-naphthyridin-3-yl)pyridin-3-yl)picolinamide]
20 to 100 nM	CNc1cc2ncc(-c3cc(NC(=O)c4cc(C(F)(F)F)ccn4)nnc3C)cc2cn1 [Compound 75, N-(6-methyl-5-(7-(methylamino)-1,6-naphthyridin-3-yl)pyridazin-3-yl)-4-(trifluoromethyl)picolinamide]
